Reference: US20130210099A1, “METHOD FOR THE PRODUCTION OF ERYTHRITOL” (ANNIKKI GMBH, priority 2010, published 2013)

T1: Err1 (Trichoderma reesei, UniProt Q0GYU5)
T1 sequence (Q0GYU5 1-331): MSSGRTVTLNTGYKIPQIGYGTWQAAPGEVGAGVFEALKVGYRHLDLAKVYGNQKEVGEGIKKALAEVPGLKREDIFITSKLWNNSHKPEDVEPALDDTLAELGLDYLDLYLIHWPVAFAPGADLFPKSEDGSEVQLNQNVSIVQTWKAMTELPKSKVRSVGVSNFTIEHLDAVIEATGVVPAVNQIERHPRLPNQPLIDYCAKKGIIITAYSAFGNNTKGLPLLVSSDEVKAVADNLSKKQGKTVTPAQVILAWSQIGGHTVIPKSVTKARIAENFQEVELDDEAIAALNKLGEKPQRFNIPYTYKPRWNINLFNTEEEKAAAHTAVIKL


Columns and labels:
[1] = target: T2, GST::err1 fusion proteins (Trichoderma reesei, UniProt Q0GYU5); assay: Enzyme assay measuring NADPH-decrease with different substrates; type: biochemical; settings: NADPH decrease at 340 nm; 400 μM NADPH, 10 mM substrate, 30° C., pH 7
T2 construct: made in house; host or cells: E. coli BL21 (DE3) pLysS
Procedure: The following 1 mL assay was performed: 400 μM NADPH (in 10 mM sodium phosphate buffer, pH 7), and 25 μL purified GST::err1 enzyme were mixed in an lmL quartz cuvette and incubated at 30° C. for 1 min. Then adding D-erythrose to a final concentration of 10 mM started the reaction. The decrease of NADPH concentration was measured in a spectrophotometer at 340 nm. As a control, a blank was performed using water instead of D-erythrose.

[2] = target: T2, GST::err1 fusion proteins; assay: HPLC analysis of the enzymatic conversion of erythrose; type: biochemical; settings: 4 mM NADPH, 5 mM erythrose, 25° C. or 37° C., 2 h
Procedure: The following 1 mL assays have been performed prior to HPLC analysis: Assay 1 comprised 4 mM NADPH (in 10 mM sodium phosphate buffer, pH 7), 25 μL purified GST::err1 enzyme, 5 mM erythrose and was incubated at 25° C. for 2 hours. Assay 2 was performed according to assay 1, but was incubated at 37° C. for 2 h. Both assays were stopped by incubating at 85° C. for 10 min and afterwards were filtered using 0.2 μm filters. As negative control assay 3 was performed like assay 1, but was immediately stopped by incubation at 85° C. for 10 min and assay 4 was performed according to assay 1, but sodium phosphate buffer instead of erythrose was used and it was immediately stopped at 85° C. for 10 min.
Analyses were performed using a Thermo Finnigan Surveyor HPLC instrument (Thermo Fisher Scientific, MA, US). All 10 μL samples were injected onto a Rezex RHM-Monosaccharide column (H+, 8%, 150×7.8 mm; Phenomenex, CA, US). Water was used as the mobile phase and elution was followed at 85° C., applying a flow rate of 0.3 mL/min for 20 min. 1 mM D-Erythrose (Sigma) and erythritol (Sigma) were used as reference substances.

Err1 = target: T1, Err1; assay: Determination of Vmax and Km according to Liepins et al. (2006)
[3] = substrate: O=CC=O; assay: purified protein, by the assay type; settings: other: substrate of Err1
[4] = substrate: O=C[C@H](O)CO; assay: purified protein, by the assay type; settings: other: substrate of Err1

| Molecule | Absorbance decrease [1] [mAbs/min] | enzymatic conversion of erythrose (HPLC) [2] | activity compared with the other substrates (Err1; higher activity versus substrates with good activity for GLD1) | Km (Err1; substrate of Err1) [µM] | Vmax (Err1; substrate of Err1) [nkat/mg] | Km [3] [µM] | Vmax [3] [µmol/min/mg] | Km [4] [µM] | Vmax [4] [µmol/min/mg] |
| --- | --- | --- | --- | --- | --- | --- | --- | --- | --- |
| O=CC=O [Glyoxal, glyoxal, reference compound] | −83.28 |  |  |  |  |  |  |  |  |
| O=C[C@H](O)[C@H](O)CO [Erythrose, D-erythrose] | −83.77 | reduced to erythritol | approximately 10 fold | 16 | 530 |  |  |  |  |
| Err1 (Trichoderma reesei) (protein) MSSGRTVTLNTGYKIPQIGYGTWQAAPGEVGAGVFEALKVGYRHLDLAKVYGNQKEVGEGIKKALAEVPGLKREDIFITSKLWNNSHKPEDVEPALDDTLAELGLDYLDLYLIHWPVAFAPGADLFPKSEDGSEVQLNQNVSIVQTWKAMTELPKSKVRSVGVSNFTIEHLDAVIEATGVVPAVNQIERHPRLPNQPLIDYCAKKGIIITAYSAFGNNTKGLPLLVSSDEVKAVADNLSKKQGKTVTPAQVILAWSQIGGHTVIPKSVTKARIAENFQEVELDDEAIAALNKLGEKPQRFNIPYTYKPRWNINLFNTEEEKAAAHTAVIKL |  |  |  |  |  | 2400 | 22.5 | 900 | 9 |
